In general, Kd refers to the free concentration of one partner at which half of the binding sites on the other are occupied at equilibrium, for simple one-to-one binding. A higher Kd goes with a looser complex.

Read-outs that look alike come from different tables or passages of the source. In the oligonucleotide strings, read from the 5' end, every base follows the letter of its sugar. An asterisk marks phosphorothioate; unmarked linkages are phosphodiester. Other units and linkages are bracketed, terminal groups are in braces. A string of capitals states the bases alone. r = 2'-OH (RNA); f = 2'-fluoro

These results are taken from patent publication US9840712B2, “CD133 aptamers for detection of cancer stem cells” (DEAKIN UNIVERSITY, priority 2012, dated 2017).

Data set [1] has as its system colon cancer cells (HT29). As to conditions: 1 μM; for Tumoursphere formation after treatment: 3 days post-treatment.
The target in data set [2] is T1, CD133 expressed on Hep3B cells (Homo sapiens, UniProt O43490).
T1 construct: determined using CD133 positive (HT-29 and Hep3B) and CD133 negative cell lines (T98G and HEK293T); host or cells: Hep3B
T1 sequence (O43490 20-865): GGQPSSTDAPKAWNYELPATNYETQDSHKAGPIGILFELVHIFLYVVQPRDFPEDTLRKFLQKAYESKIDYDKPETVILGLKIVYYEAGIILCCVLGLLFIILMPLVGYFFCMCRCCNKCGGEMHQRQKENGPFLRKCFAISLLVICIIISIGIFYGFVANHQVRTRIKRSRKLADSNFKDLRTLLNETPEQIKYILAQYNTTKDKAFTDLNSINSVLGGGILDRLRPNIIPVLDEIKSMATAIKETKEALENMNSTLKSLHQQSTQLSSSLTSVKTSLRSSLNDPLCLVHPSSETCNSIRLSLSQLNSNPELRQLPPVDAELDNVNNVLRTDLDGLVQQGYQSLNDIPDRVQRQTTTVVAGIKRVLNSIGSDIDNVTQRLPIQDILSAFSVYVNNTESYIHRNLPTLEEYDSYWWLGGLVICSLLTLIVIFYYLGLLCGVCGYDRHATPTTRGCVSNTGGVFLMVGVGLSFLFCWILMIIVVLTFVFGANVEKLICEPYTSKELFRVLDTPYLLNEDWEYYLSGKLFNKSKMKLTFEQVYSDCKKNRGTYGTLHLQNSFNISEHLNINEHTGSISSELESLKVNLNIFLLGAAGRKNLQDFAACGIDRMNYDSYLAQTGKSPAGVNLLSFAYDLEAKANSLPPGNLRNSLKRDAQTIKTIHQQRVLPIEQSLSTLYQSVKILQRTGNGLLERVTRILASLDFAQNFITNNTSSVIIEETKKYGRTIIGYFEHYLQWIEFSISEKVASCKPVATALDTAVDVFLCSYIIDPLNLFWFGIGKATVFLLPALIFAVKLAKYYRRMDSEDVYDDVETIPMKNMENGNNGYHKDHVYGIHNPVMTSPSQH
Briefly: Aptamer dissociation constant by flow cytometry, Hep3B cells. As to conditions: Hep3B cells (CD133-positive); binding at 37° C. for 30 min. As for the experimental part: (§1) Cells were harvested at 80% confluence with trypsin digestion and resuspended in washing buffer (DPBS with 2.5 mM MgCl2) and enumerated. Following centrifugation (1000×g for 5 min), the cell pellet was resuspended in binding buffer (DPBS supplemented with 5 mM MgCl2, 0.1 mg/ml tRNA, 0.1 mg/ml salmon sperm DNA) and diluted to 1×10^6/mL.
(§2) The dissociation constant (Kd) of successful 2′-fluoropyrimidine RNA aptamer species to native CD133 expressed on the cell surface was determined using flow cytometry. […] The mean fluorescence intensity (MFI) of the unselected library was subtracted from that of the aptamer-target cell to generate the MFI of specific binding. The Kd for each aptamer was determined by Scatchard analysis according to the equation: [Bound aptamer]/[aptamer]=−(1/Kd)×[bound aptamer]+([T]tot/Kd) where [T]tot represents the total target concentration. […]
(§3) To generate the truncated aptamers, the sense and antisense DNA oligonucleotides of desired sequences were synthesised. […] The binding affinities of these two aptamers and a negative control aptamer was determined using CD133 positive (HT-29 and Hep3B) and CD133 negative cell lines (T98G and HEK293T). […]
A general note: Flow cytometry measures light scatter and fluorescence of single cells or particles in a stream.

The subject of data set [3] is CD133-negative HEK293T cells. Briefly: Aptamer dissociation constant by flow cytometry, HEK293T cells (specificity). Set-up: species or system human. As to conditions: binding at 37° C. for 30 min. As for the experimental part: as §1, §2, §3
The target in data set [4] is T2, CD133 expressed on HT-29 cells (Homo sapiens, UniProt O43490).
T2 construct: determined using CD133 positive (HT-29 and Hep3B) and CD133 negative cell lines (T98G and HEK293T); host or cells: HT-29
T2 sequence (O43490 20-865): T1 sequence (O43490 20-865)
Briefly: Aptamer dissociation constant by flow cytometry, HT-29 cells. The note with it: HT-29 cells (CD133-positive); binding at 37° C. for 30 min. As to the method: as §1, §2, §3

Data set [5] relates to CD133-negative T98G cells. Briefly: Aptamer dissociation constant by flow cytometry, T98G cells (specificity). Also on record: species or system human. The note with it: binding at 37° C. for 30 min. As for the experimental part: as §1, §2, §3

For `COc1cccc2c1C(=O)c1c(O)c3c(c(O)c1C2=O)C[C@@](O)(C(=O)CO)C[C@@H]3O[C@H]1C[C@H](N)[C@H](O)[C@H](C)O1` [Doxorubicin, doxorubicin], the “Tumoursphere formation after treatment” value in data set [1] (10 cells/well), in data set [1] (50 cells/well) and in data set [1] (100 cells/well) was 5/5 in each case. Also, the “inhibition of tumoursphere formation (in words)” value in data set [1] (100 cells/well) is reported as “no effect”.

Consider “CD133-1-2-2: 15 mer 2′-F-pyrimidine RNA aptamer, 5′-CC CUC CUA CAU AGG G-3′ (SEQ ID NO:1) (fCfCfCfUfCfCfUrAfCrAfUrArGrGrG; further chemistry not given here)”, for which the Kd came to 0.032 µM in data set [2], 120 µM in data set [3], 0.082 µM in data set [4] and 275 µM in data set [5].

“CD133-2-1: 19 mer 2′-F-pyrimidine RNA aptamer, 5′-CAGAACGUAUACUAUUCUG-3′ (SEQ ID NO:6) (fCrArGrArAfCrGfUrAfUrAfCfUrAfUfUfCfUrG; further chemistry not given here)”: the Kd in data set [2] worked out at 0.052 µM; in data set [3] it was 1740 µM; in data set [4] it was 0.145 µM; in data set [5], 4.76 µM.
